Source: PubChem BioAssay (NCI)
Several values for one entry are separate records, joined by “and”; a condition that tells them apart may be missing. Equal entries are not always repeated.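 48-hour exposure; five concentrations; linearly interpolated endpoints. The concentration for 50% growth inhibition is given as GI50. Definition used: TGI = concentration required for complete inhibition of growth.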

Key:
Test in all cases: DTP human tumour cell line panel, 48 h
[1] = system: SK-MEL-2 melanoma
[2] = system: NCI-H522 lung
[3] = system: SF-295 CNS
[4] = system: U251 CNS
[5] = system: HCT-15 colon
[6] = system: SNB-75 CNS
[7] = system: SF-539 CNS
[8] = system: RXF 393 renal
[9] = system: OVCAR-3 ovarian
[10] = system: EKVX NSCLC

Compound	TGI [1] [µM]	TGI [2] [µM]	TGI [3] [µM]	TGI [4] [µM]	TGI [5] [µM]	TGI [6] [µM]	TGI [7] [µM]	TGI [8] [µM]	TGI [9] [µM]	TGI [10] [µM]	GI50 [1] [µM]	GI50 [2] [µM]	GI50 [3] [µM]	GI50 [4]	GI50 [5]	GI50 [6] [µM]	GI50 [7] [µM]	GI50 [8] [µM]	GI50 [9]	GI50 [10] [µM]
C/C(=N/O)C1CC=C(S(=O)(=O)c2ccccc2)C1 (centres undefined)	> 100	> 100	> 100	> 100	> 100	> 100	> 100	> 100	> 100	–	–	–	–	–	–	–	–	–	–	–
COC(=O)C(C(=O)C(=O)Nc1cccc(O)c1)c1nc2ccc(Cl)cc2[nH]c1=O (centres undefined)	> 100	–	> 100	> 100	> 100	> 100	> 100	> 100	> 100	> 100	–	–	–	–	–	–	–	–	–	–
CC(=O)Nc1ccc2nncnc2c1	> 100	> 100	> 100	> 100	> 100	> 100	> 100	–	> 100	> 100	–	–	–	–	–	–	–	–	–	–
N=C(N)n1ncc(Cl)c(Cl)c1=O	6.93	3.43	22.6	20	3.99	9.24	5.42	–	3.31	5.07	–	–	–	–	–	–	–	–	–	–
CC1=C(C(=O)Nc2cccc(C(F)(F)F)c2)C(c2ccc(O)cc2)C(C(=O)Nc2cccc(C(F)(F)F)c2)=C(C)N1	34.6	34.4	39.9	43.6	–	63.9	60.5	36.9	31.8	58.6	–	–	–	–	–	–	–	–	–	–
COc1ccc(/C=C/c2cc(OC)c(O[Si](C)(C)C(C)(C)C)c(OC)c2)cc1	> 100	> 100	–	> 100	> 100	> 100	> 100	–	> 100	> 100	–	–	–	–	–	–	–	–	–	–
CC(=O)CC(=O)CCCC(=O)Nc1ccc(Cl)cc1C	> 100	> 100	> 100	> 100	> 100	–	> 100	–	> 100	> 100	–	–	–	–	–	–	–	–	–	–
O=C1NC(=NCC(CO)c2ccccc2)S/C1=C\c1ccc2ncccc2c1 (centres undefined)	> 25	> 25	> 25	> 25	> 25	> 25	> 25	> 25	> 25	–	> 25	> 14.1	> 25	9.91 µM	> 21.8 µM	> 7	11.2	> 20.3	13.8 µM	–
COc1cc2c(cc1OCCCCNC(=O)c1cc3ccccc3[nH]1)N=CC1CCCN1C2=O (centres undefined)	–	79.9	41.6	> 100	58.2	> 100	41.7	6.28	> 100	42.2	–	4.43	12.7	10.5 µM	16.4 µM	33.9	8.57	2.35	8.59 µM	17.8
CCOC(=O)C1=C(Nc2ccccc2)OC/C1=N\NC(=O)Cc1ccccc1	> 50	> 50	> 50	> 50	–	> 50	> 50	> 50	> 50	> 50	–	–	–	–	–	–	–	–	–	–
O=C(Nc1cccc(Cl)c1)Nc1cccc(Cl)c1	> 100	> 100	> 100	> 100	–	44.3	> 100	> 92.8	> 100	–	> 21.5	2.04	3.01	7.05 µM	–	2.49	49.1	24.1	2.92 µM	–
COc1ccc(/C=C2\N=C(c3ccccc3)OC2=O)c(OCc2ccccc2)c1	–	67.2	38.6	–	–	–	46.6	–	48.4	> 100	–	–	–	–	–	–	–	–	–	–
COc1ccc(CN2c3ccccc3Sc3ccccc32)cc1F	> 100	0.804	> 48.4	> 100	> 100	98.8	5.58	–	2.04	> 100	0.476	0.266	0.323	0.561 µM	0.435 µM	0.257	0.316	–	0.312 µM	0.78
O=[N+]([O-])c1cccc(C2SCc3nc4ccccc4n32)c1 (centres undefined)	> 100	–	> 100	> 100	–	–	> 100	> 100	–	> 100	–	–	–	–	–	–	–	–	–	–
COC(=O)/C(C#N)=C\N1CCN(C(=O)c2ccco2)C1=S	8.39	–	65.1	37	> 100	> 100	–	7.71	33.6	28.5	2.94	–	26	6.78 µM	2.95 µM	15.5	–	3.1	4.92 µM	10.2
Fc1ccc(-c2nc(-c3nc4ccc(Cl)cc4[nH]3)cc3c2[nH]c2ccccc23)cc1	7.54	12.9	–	18	15.9	–	13.8	4.66	6.87	–	2.76	2.74	–	3.31 µM	3.63 µM	–	3.55	1.62	2.74 µM	–
CCOC(=O)CC(=O)ON(C)C(=O)Cc1ccccc1	> 100	> 100	> 100	> 100	> 100	–	> 100	–	> 100	> 100	–	–	–	–	–	–	–	–	–	–
Cc1ccc2nc3c(Cl)cc(=O)cc-3sc2c1	–	39	63.2	45.5	32	57.7	11.5	–	10.6	39.1	–	–	–	–	–	–	–	–	–	–
O=C(c1cc2ccccc2[nH]1)C(O)(c1cc2ccccc2[nH]1)c1cc2ccccc2[nH]1	> 246	> 246	> 246	> 246	> 246	–	> 246	> 246	> 246	> 246	–	–	–	–	–	–	–	–	–	–
N/C(=N\O)c1ncc(-c2ccc(C(F)(F)F)cc2)c(NC2CCCCCC2)n1	–	7.69	12.5	7.51	15.1	20.6	12.3	11.6	15.2	–	–	1.92	2.55	4.35 µM and 1.83 µM	2.97 µM and 0.955 µM	5.11	3.39	2.74	8.8 µM and 3.74 µM	–
NC(=O)c1ccccc1NC(=O)C(=O)C(C(=O)c1ccc2ccccc2c1)C1OC(=O)c2ccccc21 (centres undefined)	33.2	43.2	–	25.2	41.5	45.2	–	16.8	39.6	75.6	–	–	–	–	–	–	–	–	–	–
Cc1ccc(-n2c3c(c4c(CN5CCCCC5)c(O)ccc42)CCc2ccccc2C3=O)cc1	> 100	> 100	> 100	> 100	> 100	–	> 100	> 100	> 100	> 100	> 100	> 100	35.8	47.9 µM	> 100 µM	–	50	24.7	> 100 µM	> 100
CCc1cccc(C(C)CC)c1N=C(NC(=O)c1ccccc1C(=O)NC(=Nc1c(CC)cccc1C(C)CC)SC)SC (centres undefined)	> 100	64.4	> 100	79.5	> 100	–	68.8	> 100	> 100	> 100	–	–	–	–	–	–	–	–	–	–
COc1cc2cc3c4c(cc(OC)c(OC)c4c2cc1OC)CCN3C(=O)CCCC(=O)O	> 100	> 100	> 100	> 100	–	–	> 100	> 100	> 100	> 100	–	–	–	–	–	–	–	–	–	–
O=C1NC(=NCc2cccs2)SC1Cc1ccc2ncccc2c1 (centres undefined)	> 25	> 25	> 25	> 25	> 25	> 25	> 25	> 25	> 25	–	> 25	16.1	11.6	17.6 µM	11.4 µM	7.49	10.3	> 19.3	13 µM	–
CN(C)CCNC(=O)c1cccc2nc3ccc4ccccc4c3nc12	0.335	–	0.53	0.665	0.468	0.517	0.271	0.198	0.53	0.468	–	–	–	–	–	–	–	–	–	–
CC(C)c1cc(C(C)C)c(S(=O)(=O)NN)c(C(C)C)c1	> 100	–	> 100	> 100	> 100	> 100	> 100	> 100	> 100	> 100	–	–	–	–	–	–	–	–	–	–
CCC(=O)C1=C(OC(C)=O)C2Cc3c(n(C)c4ccccc34)C(C1)N2C (centres undefined)	> 100	30	> 100	> 100	38	> 100	59.2	–	> 100	> 100	–	–	–	–	–	–	–	–	–	–
C/C(CN1C(=O)c2ccccc2C1=O)=N\NS(=O)(=O)c1ccccc1	> 100	> 100	> 100	> 100	> 100	> 100	> 100	–	> 100	> 100	–	–	–	–	–	–	–	–	–	–
